{"source": "patent US20180305292A1", "about": "“DERIVATIVES OF NONSTEROIDAL ANTI-INFLAMMATORY DRUGS” (priority 2015, published 2018)", "test": "Metabolic stability in minipig intestinal fluid, quantification of released licofelone by HPLC/UV", "assay_type": "in vitro ADME, Gottingen SPF minipig", "details": "incubation in diluted minipig intestinal fluid", "experimental": "a) Preparation and Storage of Minipig Intestinal Fluid (IF)\nIntestinal tissue/fluid and enterocyte samples were taken from a 10 month old, female Gottingen SPF minipig. The body weight was 21 kg. The minipig was fasted for approximately 28 hours before sampling of intestinal fluid/tissues and enterocytes. On the day of sampling, the minipig was weighed and anaesthetised. The animal was killed by exsanguination before sampling of intestinal fluid. An intestinal segment was ligated at both ends before removal. The isolated tissue was placed in isotonic saline and opened by a longitudinal cut for sampling of intestinal fluid.\nThe intestinal tissue from each segment was transferred into a Centrifuge Tube, immersed in 10 ml 50 mM phosphate buffer, pH 6.8 and frozen at −70° C.\nb) Incubation Experiments with Minipig Intestinal Fluid (without FaSSIF) […]\nc) Quantification of Licofelone by HPLC/UV\nA set of six reference solutions (solvent: 1 vol IF and 4 vol 2% bovine serum albumin in FaSSIF pH 6.5) with licofelone concentrations between 38.0 and 0.19 μg/ml and the solvent without licofelone were analyzed in duplicate. The obtained concentration/peak area data pairs were subjected to linear regression analysis and the resulting calibration curve (r^2=0.9999) was used for quantification of licofelone in incubation experiments."}
{"smiles": "COC(=O)/C=C/C(=O)OCCOCCOCCOCCOC(=O)Cc1c(-c2ccc(Cl)cc2)c(-c2ccccc2)c2n1CC(C)(C)C2", "note": "[Example 8, (E)-But-2-enedioic acid 2-{2-[2-(2-{2-[2-(4-chloro-phenyl)-6,6-dimethyl-1-phenyl-6,7-dihydro-5H-pyrrolizin-3-yl]-acetoxy}-ethoxy)-ethoxy]-ethoxy}-ethyl ester methyl ester]", "values": [{"measurement": "Cleavage of the ester bond, release of licofelone and monomethylfumarate", "value": "unexpected smooth cleavage of the ester bond"}]}
